Values quoted from earlier work as cited in patent publication US11173186B2, “Dosing regime and formulations for type B adenovirus” (PSIOXUS THERAPEUTICS LIMITED, priority 2013, dated 2021).

Details: interim analysis; intratumoural talimogene laherparepvec vs subcutaneous GM-CSF

## GM-CSF: subcutaneously administered GM-CSF, comparator in the OPTiM trial
  durable response rate: 2%
